Structures can show the parent of a compound that is named as a salt.
Assays:
HeLa [1] = assay: Cell Painting percent induction (share of features beyond 2 z-scores vs DMSO); higher = more features changed / larger toxic effect; extreme values may be limits of the assay; conditions: incubation time: 24h incubation
human spermatozoa [2] = assay: acrosome-reacted (PNA+) sperm after agonist cocktail, percent change vs DMSO (capacitating); higher = more of the measured sperm population than DMSO, for viability, fewer PI-positive (dead) cells than DMSO; conditions: incubation time: 3h, capacitating + agonist cocktail 1h
human spermatozoa [3] = assay: progressively motile sperm, percent change vs DMSO (non-capacitating); higher = more of the measured sperm population than DMSO, for viability, fewer PI-positive (dead) cells than DMSO; extreme values may be limits of the assay
human spermatozoa [4] = assay: total motile sperm, percent change vs DMSO (non-capacitating); higher = more of the measured sperm population than DMSO, for viability, fewer PI-positive (dead) cells than DMSO
human spermatozoa [5] = assay: progressively motile sperm, percent change vs DMSO (capacitating); higher = more of the measured sperm population than DMSO, for viability, fewer PI-positive (dead) cells than DMSO; conditions: incubation time: 30min incubation
human spermatozoa [6] = assay: viability fold change, 1 - (PI-positive fraction / DMSO median); higher = more of the measured sperm population than DMSO, for viability, fewer PI-positive (dead) cells than DMSO; conditions: incubation time: 3h, non-capacitating
HeLa [7] = assay: HeLa toxicity: nuclei-count effect normalised to DMSO (DMSO = 0); higher = more features changed / larger toxic effect; conditions: incubation time: 24h incubation
human spermatozoa [8] = assay: hyperactivated motile sperm, percent change vs DMSO (capacitating); higher = more of the measured sperm population than DMSO, for viability, fewer PI-positive (dead) cells than DMSO; conditions: incubation time: 30min incubation
human spermatozoa [9] = assay: change in acrosome-reacted (PNA+) sperm vs DMSO, no agonist (capacitating); higher = more of the measured sperm population than DMSO, for viability, fewer PI-positive (dead) cells than DMSO; conditions: incubation time: 3h
HepG2 = HepG2 toxicity (resazurin), effect normalised to DMSO (DMSO = 0); higher = more features changed / larger toxic effect; conditions: incubation time: 70h incubation
[10] = incubation time: 10min incubation, 9.99 µM
[11] = incubation time: 10min incubation, 29.9 µM
[12] = incubation time: 3h incubation, 9.99 µM
[13] = incubation time: 3h incubation, 29.9 µM
[14] = incubation time: 6h incubation, 9.99 µM
[15] = incubation time: 6h incubation, 29.9 µM
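Throughout, for progressively motile sperm, percent change vs DMSO (non-capacitating): pooled live human sperm from at least 3 donors, tracked by automated microscopy in 0.5 s time-lapse movies, compounds at 10 and 30 µM, versus median of 16 DMSO wells per plate.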
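Throughout, for total motile sperm, percent change vs DMSO (non-capacitating): sperm pooled from at least 3 donors, tracked in 0.5 s time-lapse movies by automated microscopy after 10 min, 3 h or 6 h with compound at 10 or 30 µM.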

Structure (SMILES)	Cell Painting percent induction (HeLa [1]; 9.99 µM)	Cell Painting percent induction (HeLa [1]; 29.9 µM)	acrosome-reacted (human spermatozoa [2]; 9.99 µM)	acrosome-reacted (human spermatozoa [2]; 29.9 µM)	progressively motile sperm (human spermatozoa [3]; [10])	progressively motile sperm (human spermatozoa [3]; [11])	progressively motile sperm (human spermatozoa [3]; [12])	progressively motile sperm (human spermatozoa [3]; [13])	progressively motile sperm (human spermatozoa [3]; [14])	progressively motile sperm (human spermatozoa [3]; [15])	total motile sperm (human spermatozoa [4]; [10])	total motile sperm (human spermatozoa [4]; [11])	total motile sperm (human spermatozoa [4]; [12])	total motile sperm (human spermatozoa [4]; [13])	total motile sperm (human spermatozoa [4]; [14])	total motile sperm (human spermatozoa [4]; [15])	progressively motile sperm (human spermatozoa [5]; 9.99 µM)	progressively motile sperm (human spermatozoa [5]; 29.9 µM)	viability fold change (human spermatozoa [6]; 9.99 µM)	viability fold change (human spermatozoa [6]; 29.9 µM)	HeLa toxicity: nuclei-count effect normalised (HeLa [7]; 9.99 µM)	HeLa toxicity: nuclei-count effect normalised (HeLa [7]; 29.9 µM)	hyperactivated motile sperm (human spermatozoa [8]; 9.99 µM)	hyperactivated motile sperm (human spermatozoa [8]; 29.9 µM)	change in acrosome-reacted (human spermatozoa [9]; 9.99 µM)	change in acrosome-reacted (human spermatozoa [9]; 29.9 µM)	HepG2 toxicity (HepG2; 10 µM)	HepG2 toxicity (HepG2; 30 µM)
CCOc1ccc(-c2nc(-c3cccc4c3CCC4NCCO)no2)cc1OCC (configuration not stated) [CYM 5442 hydrchloride]	4.97%	3.13%	63%	75.1%	15.6%	3.34%	40%	14.5%	51.9%	21.7%	0.362%	-6.08%	7.62%	-11.7%	7.81%	-12.3%	3.76%	6.19%	-0.289	-0.544	-0.601%	18%	46.2%	45.7%	2.58%	4.61%	14.4%	101%
Nc1nc(Cl)nc2c1ncn2[C@@H]1O[C@H](CO)[C@@H](O)[C@@H]1F [Clofarabine]	0.396%	0.54%	87.1%	104%	21.7%	19.3%	50.7%	35.6%	46.2%	29.9%	-6.85%	-9.16%	-17.7%	-20.8%	-25.1%	-28.8%	10.5%	12.9%	-0.45	-0.516	47.6%	47.5%	206%	262%	1.07%	0.866%	12.2%	19.6%
Clc1ccc(C(OCCN2CCCCC2)c2ccccc2)cc1 (configuration not stated) [Cloperastine hydrochloride]	1.84%	3.64%	-1.44%	-4.86%	7.41%	-9.23%	-87%	-98.1%	-86.3%	-97.8%	1.61%	2.24%	-3.5%	-29.1%	-19.1%	-44%	5.13%	-14.3%	-1.96	-1.7	6.68%	19.6%	-26.2%	-69.6%	1.21%	0.462%	7.17%	8.06%
CNS(=O)(=O)c1ccccc1Nc1nc(Nc2ccc(C3CCN(C)CC3)cc2OC)ncc1Cl [Compound 19]	51.7%	53.2%	-19.8%	31.9%	-91.3%	-92.3%	-90.1%	-93.7%	-90.5%	-96%	-56.4%	-58.2%	-66.7%	-69.7%	-63.1%	-74.1%	-48.6%	-61.5%	-0.353	-1.11	98.9%	97.1%	-80.3%	-81.6%	1.02%	5.53%	103%	103%
CCOC(=O)CSc1nc(=O)c(NCC(=O)OC)n[nH]1 [Compound B4]	0%	0%	78.6%	102%	0.38%	-0.636%	7.69%	-26.4%	4.42%	-27.1%	-1.27%	-2.9%	-1.69%	-8.87%	-5.02%	-14.2%	3.54%	-5%	-0.743	-0.817	-3.67%	-5.81%	141%	283%	0.981%	1.58%	-2.06%	5.66%
OCCN(CCO)c1nc(N2CCCCC2)c2nc(N(CCO)CCO)nc(N3CCCCC3)c2n1 [Dipyridamole]	0.036%	0.18%	56.3%	74.8%	36%	38.1%	80.3%	58.3%	82.1%	83.5%	0.517%	-2.33%	-2.26%	-16%	-6.57%	-14.4%	16.4%	19.4%	-2.05	-2.06	3.21%	2%	88.9%	43.9%	1.09%	1.87%	-2.63%	7.46%
CCN(CC)C(=S)SSC(=S)N(CC)CC [Disulfiram]	0%	0.576%	86.5%	13%	-96.4%	-100%	-100%	-99.9%	-99.3%	-100%	-80.8%	-91.5%	-94.3%	-91.5%	-88.6%	-93.2%	-96.3%	-99.9%	-0.587	-1.58	16.7%	49.8%	-82.7%	-88.4%	16.4%	16%	-2.95%	20.2%
COc1ccc2nc([S@@+]([O-])Cc3ncc(C)c(OC)c3C)[nH]c2c1 [Esomeprazole]	0%	0%	25.4%	50.1%	11.4%	21.1%	37%	43.5%	50.4%	35.7%	-4.34%	-3.89%	-8.86%	-9.65%	-8.85%	-15.2%	15.2%	19%	0.0722	-0.272	-3.81%	-3.61%	72.4%	123%	0.624%	1.41%	-1.96%	4.42%
CC(C)C(C(=O)OC(C#N)c1cccc(Oc2ccccc2)c1)c1ccc(Cl)cc1 (configuration not stated) [Fenvalerate]	0%	0.036%	16%	11.8%	-11.9%	-13.7%	3.76%	-3.88%	11.3%	5.45%	-12.2%	-13.5%	-9.13%	-13%	-6.57%	-13.4%	-16%	-21.3%	-0.675	0.413	8.15%	4.61%	-11.7%	-10.3%	1.05%	0.945%	6.05%	-6.97%
